Laboratory results from the kinase profiling compilation of Christmann-Franck et al. (2016).
Several values for one entry are separate records, joined by “and”; a condition that tells them apart may be missing. Equal entries are not always repeated.

Assays:
Assay in all cases: radiometric filter-binding kinase assay, Kinase HotSpot
Settings in all cases: compound 0.5 µM; ATP 10 µM
AURKC (human) = AURKC (human) (UniProt Q9UQB9)
BMX (human) = BMX (human) (UniProt P51813)
BRSK1 (human) = BRSK1 (human) (UniProt Q8TDC3)
CAMK1 (human) = CAMK1 (human) (UniProt Q14012)
CDK2 CCNA2 (human) = CDK2 CCNA2 (human) (UniProt P24941+P20248)
CDK3 CCNE1 (human) = CDK3 CCNE1 (human) (UniProt Q00526+P24864)
CDK9 CCNK (human) = CDK9 CCNK (human) (UniProt O75909+P50750)
CSK (human) = CSK (human) (UniProt P41240)
CSNK1E (human) = CSNK1E (human) (UniProt P49674)
CSNK1G1 (human) = CSNK1G1 (human) (UniProt Q9HCP0)
CSNK2A2 (human) = CSNK2A2 (human) (UniProt P19784)
DYRK1A (human) = DYRK1A (human) (UniProt Q13627)
DYRK1B (human) = DYRK1B (human) (UniProt Q9Y463)
DYRK2 (human) = DYRK2 (human) (UniProt Q92630)
EPHA1 (human) = EPHA1 (human) (UniProt P21709)
EPHA3 (human) = EPHA3 (human) (UniProt P29320)
EPHB1 (human) = EPHB1 (human) (UniProt P54762)
FGR (human) = FGR (human) (UniProt P09769)
FLT1 (human) = FLT1 (human) (UniProt P17948)
GRK5 (human) = GRK5 (human) (UniProt P34947)
GRK6 (human) = GRK6 (human) (UniProt P43250)
HIPK3 (human) = HIPK3 (human) (UniProt Q9H422)
INSR (human) = INSR (human) (UniProt P06213)
JAK2 JH1 JH2 (human) = JAK2 JH1 JH2 (human) (UniProt O60674)
MAP2K2 (human) = MAP2K2 (human) (UniProt P36507)
MAP3K5 (human) = MAP3K5 (human) (UniProt Q99683)
MAPK11 (human) = MAPK11 (human) (UniProt Q15759)
MAPK9 (human) = MAPK9 (human) (UniProt P45984)
MLTK (human) = MLTK (human) (UniProt Q9NYL2)
MST1R (human) = MST1R (human) (UniProt Q04912)
MYLK2 (human) = MYLK2 (human) (UniProt Q9H1R3)
NEK1 (human) = NEK1 (human) (UniProt Q96PY6)
NEK11 (human) = NEK11 (human) (UniProt Q8NG66)
PNCK (human) = PNCK (human) (UniProt Q6P2M8)
PRKCD (human) = PRKCD (human) (UniProt Q05655)
PRKCH (human) = PRKCH (human) (UniProt P24723)
PRKG1 (human) = PRKG1 (human) (UniProt Q13976)
RPS6KA2 KD1 KD2 (human) = RPS6KA2 KD1 KD2 (human) (UniProt Q15349)
SGK2 (human) = SGK2 (human) (UniProt Q9HBY8)
STK33 (human) = STK33 (human) (UniProt Q9BYT3)
TXK (human) = TXK (human) (UniProt P42681)
VRK1 (human) = VRK1 (human) (UniProt Q99986)

Sequence of MAP3K5 (human) (Q99683 whole entry, looked up): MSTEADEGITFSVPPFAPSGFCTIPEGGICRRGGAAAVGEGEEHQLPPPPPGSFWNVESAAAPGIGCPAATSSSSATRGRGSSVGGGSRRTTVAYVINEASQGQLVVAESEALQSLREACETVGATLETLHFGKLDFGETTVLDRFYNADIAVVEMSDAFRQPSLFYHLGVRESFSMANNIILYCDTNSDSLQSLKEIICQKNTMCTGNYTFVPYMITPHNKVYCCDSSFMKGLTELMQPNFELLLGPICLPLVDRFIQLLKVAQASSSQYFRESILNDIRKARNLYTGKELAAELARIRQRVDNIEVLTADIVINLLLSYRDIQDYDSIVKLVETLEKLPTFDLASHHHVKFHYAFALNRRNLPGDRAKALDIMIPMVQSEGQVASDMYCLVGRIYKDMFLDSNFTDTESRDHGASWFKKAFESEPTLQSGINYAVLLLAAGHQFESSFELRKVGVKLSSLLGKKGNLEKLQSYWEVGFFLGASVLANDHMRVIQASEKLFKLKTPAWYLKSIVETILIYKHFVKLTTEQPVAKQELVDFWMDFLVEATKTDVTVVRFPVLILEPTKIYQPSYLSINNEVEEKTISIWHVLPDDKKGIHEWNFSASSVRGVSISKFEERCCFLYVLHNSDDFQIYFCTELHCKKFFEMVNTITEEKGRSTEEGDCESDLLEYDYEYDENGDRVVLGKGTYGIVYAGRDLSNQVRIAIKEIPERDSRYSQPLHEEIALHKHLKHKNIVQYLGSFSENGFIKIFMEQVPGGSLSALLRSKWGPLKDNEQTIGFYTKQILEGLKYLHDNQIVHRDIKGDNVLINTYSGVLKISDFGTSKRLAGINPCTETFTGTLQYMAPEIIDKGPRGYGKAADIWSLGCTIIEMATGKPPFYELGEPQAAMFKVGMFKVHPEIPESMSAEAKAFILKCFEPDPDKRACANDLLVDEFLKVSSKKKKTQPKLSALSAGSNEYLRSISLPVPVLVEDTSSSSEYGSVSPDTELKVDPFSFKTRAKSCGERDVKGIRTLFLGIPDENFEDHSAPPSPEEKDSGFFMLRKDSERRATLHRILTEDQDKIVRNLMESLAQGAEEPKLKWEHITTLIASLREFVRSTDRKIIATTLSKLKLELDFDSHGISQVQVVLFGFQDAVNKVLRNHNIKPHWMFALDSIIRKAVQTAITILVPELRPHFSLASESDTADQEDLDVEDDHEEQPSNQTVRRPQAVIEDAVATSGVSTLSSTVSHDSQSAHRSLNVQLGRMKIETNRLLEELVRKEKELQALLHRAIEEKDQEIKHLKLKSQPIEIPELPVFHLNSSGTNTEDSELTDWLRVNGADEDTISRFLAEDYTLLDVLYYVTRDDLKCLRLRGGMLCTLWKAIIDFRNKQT
Sequence of HIPK3 (human) (Q9H422 whole entry, looked up): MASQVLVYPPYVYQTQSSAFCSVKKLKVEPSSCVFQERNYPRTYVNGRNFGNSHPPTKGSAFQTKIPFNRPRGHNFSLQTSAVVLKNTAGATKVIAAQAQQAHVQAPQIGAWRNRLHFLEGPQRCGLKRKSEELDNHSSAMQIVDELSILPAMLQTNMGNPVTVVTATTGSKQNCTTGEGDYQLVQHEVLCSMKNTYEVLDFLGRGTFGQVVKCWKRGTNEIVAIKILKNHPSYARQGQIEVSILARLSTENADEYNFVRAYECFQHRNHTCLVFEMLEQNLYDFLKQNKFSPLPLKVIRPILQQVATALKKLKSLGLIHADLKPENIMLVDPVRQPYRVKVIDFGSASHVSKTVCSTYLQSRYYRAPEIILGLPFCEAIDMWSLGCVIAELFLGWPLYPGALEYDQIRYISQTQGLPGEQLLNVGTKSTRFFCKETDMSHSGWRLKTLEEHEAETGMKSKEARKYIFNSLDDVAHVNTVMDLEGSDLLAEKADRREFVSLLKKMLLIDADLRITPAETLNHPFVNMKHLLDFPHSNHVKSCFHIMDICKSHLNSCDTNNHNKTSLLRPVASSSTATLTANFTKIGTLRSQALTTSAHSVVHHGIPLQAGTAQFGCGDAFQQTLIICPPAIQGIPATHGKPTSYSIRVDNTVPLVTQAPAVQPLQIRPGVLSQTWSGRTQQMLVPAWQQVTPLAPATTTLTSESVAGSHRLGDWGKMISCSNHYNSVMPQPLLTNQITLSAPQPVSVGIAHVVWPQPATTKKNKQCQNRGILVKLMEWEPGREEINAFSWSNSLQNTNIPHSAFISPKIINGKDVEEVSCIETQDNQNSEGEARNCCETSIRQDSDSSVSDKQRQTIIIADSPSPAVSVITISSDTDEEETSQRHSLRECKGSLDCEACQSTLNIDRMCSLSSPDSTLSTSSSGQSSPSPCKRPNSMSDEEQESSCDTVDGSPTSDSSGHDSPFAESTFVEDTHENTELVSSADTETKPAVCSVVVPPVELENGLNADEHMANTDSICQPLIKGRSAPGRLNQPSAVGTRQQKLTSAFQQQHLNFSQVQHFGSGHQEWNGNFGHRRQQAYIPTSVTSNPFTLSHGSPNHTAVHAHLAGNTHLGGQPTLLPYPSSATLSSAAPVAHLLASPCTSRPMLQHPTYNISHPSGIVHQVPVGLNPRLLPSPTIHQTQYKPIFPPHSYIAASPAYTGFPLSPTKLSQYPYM
Sequence of MYLK2 (human) (Q9H1R3 whole entry, looked up): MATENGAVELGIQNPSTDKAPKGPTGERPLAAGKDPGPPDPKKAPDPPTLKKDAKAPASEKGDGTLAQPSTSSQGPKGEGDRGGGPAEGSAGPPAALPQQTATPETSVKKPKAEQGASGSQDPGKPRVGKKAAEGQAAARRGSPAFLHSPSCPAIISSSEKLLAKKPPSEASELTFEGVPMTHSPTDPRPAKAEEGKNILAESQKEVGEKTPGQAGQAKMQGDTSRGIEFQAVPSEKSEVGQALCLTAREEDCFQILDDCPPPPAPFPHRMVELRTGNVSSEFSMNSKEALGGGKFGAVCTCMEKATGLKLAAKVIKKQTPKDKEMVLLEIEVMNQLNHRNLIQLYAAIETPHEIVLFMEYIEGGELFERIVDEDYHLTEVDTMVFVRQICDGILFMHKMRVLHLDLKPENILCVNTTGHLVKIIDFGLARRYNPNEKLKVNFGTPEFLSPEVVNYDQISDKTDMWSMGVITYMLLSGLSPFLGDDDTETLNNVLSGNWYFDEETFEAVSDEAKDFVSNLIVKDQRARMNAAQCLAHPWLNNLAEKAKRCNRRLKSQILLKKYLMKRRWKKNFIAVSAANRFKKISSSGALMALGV
Sequence of BMX (human) (P51813 whole entry, looked up): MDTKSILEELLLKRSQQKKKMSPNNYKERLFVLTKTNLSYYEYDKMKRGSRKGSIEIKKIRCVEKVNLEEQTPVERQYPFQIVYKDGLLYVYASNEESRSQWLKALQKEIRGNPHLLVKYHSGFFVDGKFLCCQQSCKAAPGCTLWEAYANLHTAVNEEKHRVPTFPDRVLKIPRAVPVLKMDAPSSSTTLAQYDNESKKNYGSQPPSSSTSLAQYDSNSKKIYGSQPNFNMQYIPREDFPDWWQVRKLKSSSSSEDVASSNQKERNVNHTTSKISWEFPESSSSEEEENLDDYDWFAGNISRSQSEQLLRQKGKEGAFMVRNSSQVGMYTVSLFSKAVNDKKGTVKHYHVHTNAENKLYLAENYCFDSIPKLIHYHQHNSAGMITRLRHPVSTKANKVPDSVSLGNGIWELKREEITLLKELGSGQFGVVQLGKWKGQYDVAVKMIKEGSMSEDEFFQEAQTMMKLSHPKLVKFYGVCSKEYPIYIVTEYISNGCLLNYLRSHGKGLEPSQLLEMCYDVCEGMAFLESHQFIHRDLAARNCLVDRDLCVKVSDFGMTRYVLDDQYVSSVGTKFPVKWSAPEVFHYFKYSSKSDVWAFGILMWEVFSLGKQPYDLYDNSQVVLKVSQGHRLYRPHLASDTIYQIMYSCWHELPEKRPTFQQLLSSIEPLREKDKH
Sequence of SGK2 (human) (Q9HBY8 whole entry, looked up): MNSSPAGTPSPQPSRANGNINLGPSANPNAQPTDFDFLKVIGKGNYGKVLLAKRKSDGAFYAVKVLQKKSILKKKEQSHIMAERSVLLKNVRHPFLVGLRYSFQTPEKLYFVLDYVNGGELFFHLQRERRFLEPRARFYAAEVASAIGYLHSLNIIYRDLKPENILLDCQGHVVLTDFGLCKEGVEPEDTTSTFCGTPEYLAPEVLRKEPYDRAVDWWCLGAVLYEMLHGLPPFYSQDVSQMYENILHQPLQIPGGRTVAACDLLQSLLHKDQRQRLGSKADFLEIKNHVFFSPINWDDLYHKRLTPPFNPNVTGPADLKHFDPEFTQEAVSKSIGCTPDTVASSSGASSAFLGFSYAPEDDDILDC
Sequence of PRKCH (human) (P24723 whole entry, looked up): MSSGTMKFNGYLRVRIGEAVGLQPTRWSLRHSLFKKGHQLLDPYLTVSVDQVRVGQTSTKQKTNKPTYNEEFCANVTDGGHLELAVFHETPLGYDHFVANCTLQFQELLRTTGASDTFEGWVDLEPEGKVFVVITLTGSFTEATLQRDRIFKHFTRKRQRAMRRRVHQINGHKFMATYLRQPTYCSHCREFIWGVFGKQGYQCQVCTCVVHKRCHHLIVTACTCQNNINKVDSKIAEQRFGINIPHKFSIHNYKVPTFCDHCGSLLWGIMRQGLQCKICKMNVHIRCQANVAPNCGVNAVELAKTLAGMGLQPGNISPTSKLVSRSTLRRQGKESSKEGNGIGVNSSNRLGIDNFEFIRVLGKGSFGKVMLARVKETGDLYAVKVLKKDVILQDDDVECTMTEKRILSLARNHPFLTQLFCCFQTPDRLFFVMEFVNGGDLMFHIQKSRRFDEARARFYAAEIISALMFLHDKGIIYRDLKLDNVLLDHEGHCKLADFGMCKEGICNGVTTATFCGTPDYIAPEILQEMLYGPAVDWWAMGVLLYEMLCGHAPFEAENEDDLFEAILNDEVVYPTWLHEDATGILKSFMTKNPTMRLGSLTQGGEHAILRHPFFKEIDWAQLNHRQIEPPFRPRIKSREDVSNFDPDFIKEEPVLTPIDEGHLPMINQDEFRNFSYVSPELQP

For `Cn1c2ccccc2c2c3c(c4c5ccccc5n(CCC#N)c4c21)CNC3=O`, the residual activity (AURKC (human)) was 55.7%, the residual activity (BMX (human)) was 13.7% and the residual activity (BRSK1 (human)) was 20.2%. It also gave a residual activity (CAMK1 (human)) of 94.2%, a residual activity (CDK2 CCNA2 (human)) of 20.8% and a residual activity (CDK3 CCNE1 (human)) of 65.2%. The residual activity (CDK9 CCNK (human)) was 55.2%, the residual activity (CSK (human)) was 81% and the residual activity (CSNK1E (human)) was 80.4%. The residual activity (CSNK1G1 (human)) was 93.3%, the residual activity (CSNK2A2 (human)) was 104% and the residual activity (DYRK1A (human)) was 46.3%. For the same molecule, the residual activity (DYRK1B (human)) was 25.6%, the residual activity (DYRK2 (human)) was 48.9% and the residual activity (EPHA1 (human)) was 81.6%. It also gave a residual activity (EPHA3 (human)) of 97.9%, a residual activity (EPHB1 (human)) of 95% and a residual activity (FGR (human)) of 70.7%. It also gave a residual activity (FLT1 (human)) of 63.6%, a residual activity (GRK5 (human)) of 89.1% and a residual activity (GRK6 (human)) of 44.4%. It also gave a residual activity (HIPK3 (human)) of 29.8%, a residual activity (INSR (human)) of 89.3% and a residual activity (JAK2 JH1 JH2 (human)) of 5.58%. The residual activity (MAP2K2 (human)) was 92.5%, the residual activity (MAP3K5 (human)) was 49.8% and the residual activity (MAPK11 (human)) was 99.5%. The residual activity (MAPK9 (human)) was 86%, the residual activity (MLTK (human)) was 86.6% and the residual activity (MST1R (human)) was 111%. The residual activity (MYLK2 (human)) was 59.6%, the residual activity (NEK1 (human)) was 62.9% and the residual activity (NEK11 (human)) was 110%. For the same molecule, the residual activity (PNCK (human)) was 103%, the residual activity (PRKCD (human)) was 41.9% and the residual activity (PRKCH (human)) was 35.3%. For the same molecule, the residual activity (PRKG1 (human)) was 80.2% and 84.3%, the residual activity (RPS6KA2 KD1 KD2 (human)) was 0.299% and the residual activity (SGK2 (human)) was 94%. For the same molecule, the residual activity (STK33 (human)) was 26.5%, the residual activity (TXK (human)) was 6.39% and the residual activity (VRK1 (human)) was 84%.
With `CN(C)c1ccc(/C=C2\C(=O)Nc3ccccc32)cc1` the residual activity (AURKC (human)) was 91.1%, the residual activity (BMX (human)) was 92.2% and the residual activity (BRSK1 (human)) was 99.6%. The residual activity (CAMK1 (human)) was 104%, the residual activity (CDK2 CCNA2 (human)) was 102% and the residual activity (CDK3 CCNE1 (human)) was 98.7%. The residual activity (CDK9 CCNK (human)) was 100%, the residual activity (CSK (human)) was 96.9% and the residual activity (CSNK1E (human)) was 57.2%. For the same molecule, the residual activity (CSNK1G1 (human)) was 93%, the residual activity (CSNK2A2 (human)) was 98.6% and the residual activity (DYRK1A (human)) was 103%. It also gave a residual activity (DYRK1B (human)) of 106%, a residual activity (DYRK2 (human)) of 100% and a residual activity (EPHA1 (human)) of 93.7%. It also gave a residual activity (EPHA3 (human)) of 102%, a residual activity (EPHB1 (human)) of 102% and a residual activity (FGR (human)) of 90%. The residual activity (FLT1 (human)) was 92%, the residual activity (GRK5 (human)) was 104% and the residual activity (GRK6 (human)) was 102%. The residual activity (HIPK3 (human)) was 94.4%, the residual activity (INSR (human)) was 93.4% and the residual activity (JAK2 JH1 JH2 (human)) was 94.8%. The residual activity (MAP2K2 (human)) was 99.4%, the residual activity (MAP3K5 (human)) was 99.4% and the residual activity (MAPK11 (human)) was 93.5%. The residual activity (MAPK9 (human)) was 103%, the residual activity (MLTK (human)) was 96.5% and the residual activity (MST1R (human)) was 106%. The residual activity (MYLK2 (human)) was 82.6%, the residual activity (NEK1 (human)) was 112% and the residual activity (NEK11 (human)) was 96.4%. It also gave a residual activity (PNCK (human)) of 102%, a residual activity (PRKCD (human)) of 95.6% and a residual activity (PRKCH (human)) of 92.3%. The residual activity (PRKG1 (human)) was 86.9% and 99.7%, the residual activity (RPS6KA2 KD1 KD2 (human)) was 89.1% and the residual activity (SGK2 (human)) was 98.6%. For the same molecule, the residual activity (STK33 (human)) was 99.8%, the residual activity (TXK (human)) was 96.1% and the residual activity (VRK1 (human)) was 89%.
`CCCCc1c(-c2ccc(OC)cc2)[nH]c2nccnc12` was tested, and the residual activity (AURKC (human)) was 55.8%, the residual activity (BMX (human)) was 82.2% and the residual activity (BRSK1 (human)) was 89.1%. It also gave a residual activity (CAMK1 (human)) of 90.9%, a residual activity (CDK2 CCNA2 (human)) of 36.3% and a residual activity (CDK3 CCNE1 (human)) of 83.8%. For the same molecule, the residual activity (CDK9 CCNK (human)) was 56.9%, the residual activity (CSK (human)) was 87% and the residual activity (CSNK1E (human)) was 109%. It also gave a residual activity (CSNK1G1 (human)) of 93.3%, a residual activity (CSNK2A2 (human)) of 94.1% and a residual activity (DYRK1A (human)) of 102%. The residual activity (DYRK1B (human)) was 94.5%, the residual activity (DYRK2 (human)) was 92.9% and the residual activity (EPHA1 (human)) was 67.9%. It also gave a residual activity (EPHA3 (human)) of 91.9%, a residual activity (EPHB1 (human)) of 76% and a residual activity (FGR (human)) of 57.1%. For the same molecule, the residual activity (FLT1 (human)) was 103%, the residual activity (GRK5 (human)) was 105% and the residual activity (GRK6 (human)) was 88.3%. The residual activity (HIPK3 (human)) was 99.9%, the residual activity (INSR (human)) was 97.6% and the residual activity (JAK2 JH1 JH2 (human)) was 77.9%. It also gave a residual activity (MAP2K2 (human)) of 79.4%, a residual activity (MAP3K5 (human)) of 95% and a residual activity (MAPK11 (human)) of 100%. The residual activity (MAPK9 (human)) was 84.8%, the residual activity (MLTK (human)) was 83.6% and the residual activity (MST1R (human)) was 104%. The residual activity (MYLK2 (human)) was 102%, the residual activity (NEK1 (human)) was 86.9% and the residual activity (NEK11 (human)) was 93.6%. It also gave a residual activity (PNCK (human)) of 120%, a residual activity (PRKCD (human)) of 92.8% and a residual activity (PRKCH (human)) of 103%. The residual activity (PRKG1 (human)) was 102% and 92.7%, the residual activity (RPS6KA2 KD1 KD2 (human)) was 93% and the residual activity (SGK2 (human)) was 116%. The residual activity (STK33 (human)) was 84.6%, the residual activity (TXK (human)) was 72.7% and the residual activity (VRK1 (human)) was 95.5%.
`COc1ccc(C(=O)Nc2sc3c(c2C(N)=O)CCCC3)cc1OC` gave a residual activity (AURKC (human)) of 97.2%, a residual activity (BMX (human)) of 89.8% and a residual activity (BRSK1 (human)) of 105%. The residual activity (CAMK1 (human)) was 90.9%, the residual activity (CDK2 CCNA2 (human)) was 103% and the residual activity (CDK3 CCNE1 (human)) was 104%. The residual activity (CDK9 CCNK (human)) was 85.7%, the residual activity (CSK (human)) was 98.8% and the residual activity (CSNK1E (human)) was 94%. The residual activity (CSNK1G1 (human)) was 90.1%, the residual activity (CSNK2A2 (human)) was 104% and the residual activity (DYRK1A (human)) was 97.4%. It also gave a residual activity (DYRK1B (human)) of 104%, a residual activity (DYRK2 (human)) of 92% and a residual activity (EPHA1 (human)) of 88.1%. For the same molecule, the residual activity (EPHA3 (human)) was 108%, the residual activity (EPHB1 (human)) was 95% and the residual activity (FGR (human)) was 90%. For the same molecule, the residual activity (FLT1 (human)) was 99.1%, the residual activity (GRK5 (human)) was 104% and the residual activity (GRK6 (human)) was 98.5%. It also gave a residual activity (HIPK3 (human)) of 105%, a residual activity (INSR (human)) of 93.2% and a residual activity (JAK2 JH1 JH2 (human)) of 99.9%. It also gave a residual activity (MAP2K2 (human)) of 95.3%, a residual activity (MAP3K5 (human)) of 94.8% and a residual activity (MAPK11 (human)) of 104%. For the same molecule, the residual activity (MAPK9 (human)) was 118%, the residual activity (MLTK (human)) was 93.8% and the residual activity (MST1R (human)) was 105%. For the same molecule, the residual activity (MYLK2 (human)) was 94.4%, the residual activity (NEK1 (human)) was 89.8% and the residual activity (NEK11 (human)) was 102%. It also gave a residual activity (PNCK (human)) of 103%, a residual activity (PRKCD (human)) of 81.8% and a residual activity (PRKCH (human)) of 101%. The residual activity (PRKG1 (human)) was 87.5% and 97%, the residual activity (RPS6KA2 KD1 KD2 (human)) was 112% and the residual activity (SGK2 (human)) was 100%. The residual activity (STK33 (human)) was 99.5%, the residual activity (TXK (human)) was 96.2% and the residual activity (VRK1 (human)) was 95.3%.
